# Laboratory results published in publication PMC12463105, “NSP7 Molecular Degrader Attenuates Coronaviral Infection Through the β‐TrCP1/FBXO5 Axis” (Advanced Science, 2025).
# pIC50: −log10 of the molar value.
# Key:
# [1] = test system: T1, HCoV-OC43; assay: microbe, parasite or virus in culture; set-up: HCoV-OC43 infection assay, reduction of viral infection; details: Betacoronavirus 1, OC43, read-out: OC43
# T1 construct: ATCC VR-1558
# [2] = test system: SARS-CoV-2 NSP7-HiBiT; details: read-out: NSP7- HiBiT; reduction of NSP7-HiBiT signal; degrader
Structure (SMILES),pIC50 [1],pIC50 [2]
"CCSc1nsc(NC(=O)NCc2cccc(OC)c2)n1 [BC24883, 3-(ethylthio)-5-{3-[(m-methoxyphenyl)methyl]ureido}-1,2,4-thiadiazole]",4.17,< 4.00
"CCOC(=O)C[C@H](NC(=O)Nc1nc(SCC)ns1)c1ccccc1 [BC24871, ethyl (S)-3-{3-[3-(ethylthio)-1,2,4-thiadiazol-5-yl]ureido}-3-phenylpropionate]",4.64,< 4.00
"CCOC(=O)C1CCC(CNC(=O)Nc2nc(SCC)ns2)CC1 (stereo not shown) [BC24913, ethyl 4-({3-[3-(ethylthio)-1,2,4-thiadiazol-5-yl]ureido}methyl)cyclohexanecarboxylate]",4.76,< 4.00
"CCSc1nsc(NC(=O)Nc2ccc(C)cc2)n1 [BC24854, 3-(ethylthio)-5-[3-(p-tolyl)ureido]-1,2,4-thiadiazole]",4.57,4.35
"CCSc1nsc(NC(=O)Nc2ccc(Br)c(C)c2)n1 [BC24878, 5-[3-(4-bromo-3-tolyl)ureido]-3-(ethylthio)-1,2,4-thiadiazole]",5.59,5.42
"CCSc1nsc(NC(=O)NC(C)C)n1 [BC24891, 3-(ethylthio)-5-(3-isopropylureido)-1,2,4-thiadiazole]",< 4.00,< 4.00
"CCSc1nsc(NC(=O)Nc2ccc(C)c(F)c2)n1 [BC24873, 3-(ethylthio)-5-[3-(3-fluoro-4-tolyl)ureido]-1,2,4-thiadiazole]",5.11,5.07
"CCCCc1ccc(NC(=O)Nc2nc(SCC)ns2)cc1 [BC24908, 5-[3-(p-butylphenyl)ureido]-3-(ethylthio)-1,2,4-thiadiazole]",4.74,4.52
"CCSc1nsc(NC(=O)N[C@@H](C)CC)n1 [BC24892, 5-{3-[(S)-1-methylpropyl]ureido}-3-(ethylthio)-1,2,4-thiadiazole]",< 4.00,< 4.00
"CCSc1nsc(NC(=O)NCCC(=O)OC)n1 [BC24874, methyl 3-{3-[3-(ethylthio)-1,2,4-thiadiazol-5-yl]ureido}propionate]",4.07,< 4.00
"CCSc1nsc(NC(=O)Nc2c(C)cccc2C)n1 [BC24905, 3-(ethylthio)-5-[3-(2,6-xylyl)ureido]-1,2,4-thiadiazole]",4.80,4.66
"CCSc1nsc(NC(=O)Nc2cccc(Cl)c2F)n1 [BC24911, 5-[3-(3-chloro-2-fluorophenyl)ureido]-3-(ethylthio)-1,2,4-thiadiazole]",5.09,5.01
"CCSc1nsc(NC(=O)Nc2ccc(C)c(C)c2)n1 [BC24848, 3-(ethylthio)-5-[3-(3,4-xylyl)ureido]-1,2,4-thiadiazole]",5.15,4.81
"CCSc1nsc(NC(=O)Nc2ccccc2)n1 [BC24844, 3-(ethylthio)-5-(3-phenylureido)-1,2,4-thiadiazole]",5.04,5.03
"CCSc1nsc(NC(=O)Nc2cccc(SC)c2)n1 [BC24888, 3-(ethylthio)-5-{3-[m-(methylthio)phenyl]ureido}-1,2,4-thiadiazole]",5.28,5.04
"CCSc1nsc(NC(=O)Nc2ccc(C)cc2Cl)n1 [BC24851, 5-[3-(2-chloro-4-tolyl)ureido]-3-(ethylthio)-1,2,4-thiadiazole]",4.76,< 4.00
"CCSc1nsc(NC(=O)NC2CCCC2)n1 [BC24872, 5-(3-cyclopentylureido)-3-(ethylthio)-1,2,4-thiadiazole]",4.51,< 4.00
"CCSc1nsc(NC(=O)NCCOC)n1 [BC24899, 3-(ethylthio)-5-[3-(2-methoxyethyl)ureido]-1,2,4-thiadiazole]",< 4.00,< 4.00
"CCSc1nsc(NC(=O)Nc2cccc(Cl)c2C)n1 [BC24862, 5-[3-(3-chloro-2-tolyl)ureido]-3-(ethylthio)-1,2,4-thiadiazole]",5.25,5.16
CCSc1nsc(NC(=O)Nc2cccc(C(F)(F)F)c2)n1 [BC24877],6.13,6.05
